Data reported in patent US20070093548A1 (Wyeth, priority 2005, published 2007).
Like-named read-outs stand apart in the source and are kept apart here.

Tests used:
[1] = system: alkaline phosphatase activity in T47D cells; assay: T47D Cell Alkaline Phosphatase Assay; type: cell-based, human; conditions: antagonist mode, in the presence of 1 nM progesterone, read-out: Example 18A 'T47D Cell Alkaline Phosphatase Assay' IC50
Description: A. Effects of Progestins and Antiprogestins on Alkaline Phosphatase Activity in T47D Cells—T47D Cell Alkaline Phosphatase Assay
The purpose of this assay is to identify progestins or antiprogestins by determining a compound's effect on alkaline phosphatase activity in T47D cells. The materials and methods are as follows.
Culture medium: DMEM:F12 (1:1) (GIBCO, BRL) supplemented with 5% (v/v) charcoal stripped fetal bovine serum (not heat-inactivated), 100 U/ml penicillin, 100 ug/ml streptomycin, and 2 mM GlutaMax (GIBCO, BRL).
Alkaline phosphatase assay buffer:
I. 0.1M Tris-HCl, pH 9.8, containing 0.2% Triton X-100
II. 0.1M Tris-HCl, pH 9.8, containing 4 mM p-nitrophenyl phosphate (Sigma).
Frozen T47D cells are thawed in a 37° C. water bath and diluted to 280,000 cells/ml in culture medium. To each well in a 96-well plate (Falcon, Becton Dickinson Labware), 180 μl of diluted cell suspension is added. 20 μl of reference or test compounds diluted in the culture medium is then added to each well. […] The cells are incubated at 37° C. in a 5% CO2/humidified atmosphere for 24 hours. NOTE: For high throughput screening, one concentration of each compound is tested at 0.3 μg/ml. Based on an average molecular weight of 300 g/mol for the compounds in the library, the concentration is approximately 1 μM.
At the end of treatment, the medium is removed from the plate. 50 μl of assay buffer I is added to each well. The plates are shaken in a titer plate shaker for 15 min. Then 150 μl of assay buffer II is added to each well.
Subsequent dose response data for screening hits will be evaluated as described below. Analysis of dose-response data. For reference and test compounds, a dose response curve is generated for dose (X-axis) vs. the rate of enzyme reaction (slope) (Y-axis). Square root-transformed data are used for analysis of variance and nonlinear dose response curve fitting for both agonist and antagonist modes. Huber weighting is used to downweight the effects of outliers. EC50 or IC50 values are calculated from the retransformed values.
Percent (%) of induction for agonists at the tested concentrations. […] The default concentration is in the nM range.

[2] = molecular target: T1, progesterone receptor (PR) (Homo sapiens, UniProt P06401); assay: Progesterone Receptor Whole Cell Competition Binding Assay Using T47D Cells; conditions: 3H-progesterone 3 nM, read-out: Example 18B 'T47D PR whole cell binding Assay' IC50
T1 construct: in live, intact (whole) cells, using the human breast carcinoma T47D cell line; endogenous in cells; host or cells: T47D human breast carcinoma cells (live, intact)
T1 sequence (P06401 1-933): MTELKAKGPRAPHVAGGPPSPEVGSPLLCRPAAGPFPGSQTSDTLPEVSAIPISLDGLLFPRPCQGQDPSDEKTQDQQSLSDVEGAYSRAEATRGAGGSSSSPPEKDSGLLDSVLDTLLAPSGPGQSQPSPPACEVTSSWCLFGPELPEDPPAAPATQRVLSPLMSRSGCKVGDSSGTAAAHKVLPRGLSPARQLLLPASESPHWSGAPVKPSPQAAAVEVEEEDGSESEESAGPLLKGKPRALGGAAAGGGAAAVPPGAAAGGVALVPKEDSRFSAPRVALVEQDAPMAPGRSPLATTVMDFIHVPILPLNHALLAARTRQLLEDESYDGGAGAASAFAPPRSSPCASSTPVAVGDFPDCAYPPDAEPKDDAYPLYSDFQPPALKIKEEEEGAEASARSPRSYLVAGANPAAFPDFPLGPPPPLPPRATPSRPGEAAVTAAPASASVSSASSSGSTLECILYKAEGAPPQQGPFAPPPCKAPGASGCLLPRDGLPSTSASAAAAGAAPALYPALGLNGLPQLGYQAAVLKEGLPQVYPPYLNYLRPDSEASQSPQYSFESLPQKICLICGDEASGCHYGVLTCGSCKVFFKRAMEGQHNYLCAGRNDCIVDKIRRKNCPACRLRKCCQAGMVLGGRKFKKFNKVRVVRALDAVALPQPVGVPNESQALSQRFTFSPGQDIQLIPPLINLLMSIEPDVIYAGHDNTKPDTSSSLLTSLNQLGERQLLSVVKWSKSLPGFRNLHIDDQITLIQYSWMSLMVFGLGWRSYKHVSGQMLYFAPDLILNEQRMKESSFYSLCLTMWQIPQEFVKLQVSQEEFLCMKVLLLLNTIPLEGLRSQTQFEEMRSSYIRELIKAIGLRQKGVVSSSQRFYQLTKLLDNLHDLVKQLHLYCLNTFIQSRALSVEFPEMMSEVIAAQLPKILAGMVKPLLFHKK
Description: 1. Culture medium: 5% RC: phenol red free DMEM:F12 (1:1) (GIBCO, BRL) supplemented with 5% (v/v) charcoal stripped fetal bovine serum (not heat-inactivated), 100 U/ml penicillin, 100 ug/ml streptomycin, and 2 mM GlutaMax (GIBCO, BRL).
2. T47D cell culture: T47D cells are maintained in 10% RC media at 37° C. in a 5% CO2/humidified atmosphere and need to be split twice weekly for proper response. Cells are plated in 10% RC the day before binding assay at 50,000 cells per well in the white, clear bottom plates purchased through VWR or Perkin Elmer.
Cells plated the day prior to the assay in white clear bottom plates are used. A master compound plate is set up containing control and test compounds at 20× final desired concentration for the competition binding. A typical dose range of 20× concentrations are (in nM); 200,000; 20,000; 6000; 2000; 600; 200; 20; and 2. Final concentrations are then (in nM); 10,000; 1000; 300; 100; 30; 10; 1; 0.1.
Media on cells is replaced with 180 μl of 5% RC. […] Compounds are incubated for 3 hrs at 37° C. […] Following incubation, media is carefully removed and cells are washed 3× with 200 μl 5% RC each wash. 50 μl of liquid scintillation cocktail is added and the plates are shaken vigorously for a minimum of 15 minutes.
Square root-transformed data are used for analysis of variance and calculation of IC50 SAS software (SAS Institute, Inc.) is used for all the statistical analysis.

[3] = system: alkaline phosphatase activity in T47D cells; assay: T47D Cell Alkaline Phosphatase Assay; type: cell-based; conditions: Homo sapiens, read-out: Example 18A 'T47D Cell Alkaline Phosphatase Assay' Inhibition (%)

Row | SMILES | IC50 ([1]; Homo sapiens, T47D, 24 h) [µM] | IC50 [2] [µM] | melting point | also measured
1 | CCC(C)c1c(OC)ccc2c1oc1ccc(C#N)cc12 (racemic) [Example 12, 6-sec-butyl-7-methoxydibenzo[b,d]furan-2-carbonitrile] | 0.0185 | 0.0597 | 80 to 82 °C | –
2 | CCC(C)c1c(O)ccc2c1oc1ccc(C#N)cc12 (racemic) [Example 13, 6-sec-butyl-7-hydroxydibenzo[b,d]furan-2-carbonitrile] | 0.019 | 0.0367 | 206 to 207 °C | –
3 | CCC(C)c1c(O)ccc2c1oc1ccc(C#N)cc12 (single isomer, unassigned; (+)) [Example 14, (+)-6-sec-butyl-7-hydroxydibenzo[b,d]furan-2-carbonitrile] | – | 0.0415 | – | IC50 [1]: 0.022 µM
4 | CCC(C)c1c(OC)ccc2c1oc1ccc(C#N)cc12 (single isomer, unassigned; (+)) [Example 16, (+)-6-sec-butyl-7-methoxydibenzo[b,d]furan-2-carbonitrile] | – | – | – | IC50 [1]: 0.013 µM
5 | CCC(C)c1c(O)ccc2c1oc1ccc(C#N)cc12 (single isomer, unassigned; (-)) [Example 15, (−)-6-sec-butyl-7-hydroxydibenzo[b,d]furan-2-carbonitrile] | – | 0.0812 | – | IC50 [1]: 0.148 µM
6 | CCC(C)c1c(OC)ccc2c1oc1ccc(C#N)cc12 (single isomer, unassigned; (-)) [Example 17, (−)-6-sec-butyl-7-methoxydibenzo[b,d]furan-2-carbonitrile] | – | – | – | IC50 [1]: 0.03 µM
7 | COc1ccc2c(c1)oc1ccc(C#N)cc12 [Example 1, 7-methoxydibenzo[b,d]furan-2-carbonitrile] | 0.259 | – | – | –
8 | N#Cc1ccc2oc3cc(O)ccc3c2c1 [Example 2, 7-hydroxydibenzo[b,d]furan-2-carbonitrile] | 0.534 | – | 270 to 271 °C | –
9 | N#Cc1ccc2oc3c(Br)c(O)c(F)cc3c2c1 [Example 3, 6-bromo-8-fluoro-7-hydroxydibenzo[b,d]furan-2-carbonitrile] | – | – | 270 °C (dec.) | –
10 | Cc1ccccc1-c1c(O)c(F)cc2c1oc1ccc(C#N)cc12 [Example 4, 8-fluoro-7-hydroxy-6-(2-methylphenyl)dibenzo[b,d]furan-2-carbonitrile] | – | – | – | inhibition at 3 µM [3]: 50%
11 | N#Cc1ccc2oc3cc(O)c(F)cc3c2c1 [Example 6, 8-fluoro-7-hydroxydibenzo[b,d]furan-2-carbonitrile] | – | – | 270 °C (dec.) | –
12 | COc1cc2oc3ccc(C#N)cc3c2cc1F [Example 7, 8-fluoro-7-methoxydibenzo[b,d]furan-2-carbonitrile] | – | – | 206 to 208 °C | inhibition at 3 µM [3]: 65%
13 | N#Cc1ccc2oc3c(-c4ccccc4F)c(O)c(F)cc3c2c1 [Example 8, 8-fluoro-6-(2-fluorophenyl)-7-hydroxydibenzo[b,d]furan-2-carbonitrile] | – | – | – | inhibition at 3 µM [3]: 40%
14 | COc1ccc2c(oc3ccc(C#N)cc32)c1C(C)C [Example 9, 6-isopropyl-7-methoxydibenzo[b,d]furan-2-carbonitrile] | 0.048 | – | – | –
15 | CC(C)c1c(O)ccc2c1oc1ccc(C#N)cc12 [Example 10, 7-hydroxy-6-isopropyldibenzo[b,d]furan-2-carbonitrile] | 0.028 | 0.0211 | 180 to 182 °C | –
16 | N#Cc1ccc2oc3c(C4CCCC4)c(O)ccc3c2c1 [Example 11, 6-cyclopentyl-7-hydroxydibenzo[b,d]furan-2-carbonitrile] | 0.05 | – | – | –
